Measured values reported in patent publication US12012407B1, “Pyrazolo[1,5-a]pyrido[4,3-e]pyrimidine-3-carboxylic acids as CK2 inhibitors” (KING FAISAL UNIVERSITY, priority 2024, dated 2024).
pIC50: −log10 of the molar value.

Columns and labels:
PC3 (prostate) = assay: In vitro cytotoxic activity (MTT) assay, PC3; type: cell-based; details: Homo sapiens, Prostate cell; PC3 (prostate) cells, exposed for 96 hours; read-out: Cytotoxicity activity IC50 (50% inhibition of cell proliferation)
Method: (§1) Compounds 1-16 were screened for their in vitro cytotoxic activity utilizing a 3-(4,5-dimethyl-thiazol-2-yl)-2,5-diphenyltetrazolium bromide (MTT) assay against selected cancer human cell lines consisting of PC3 (prostate), HCT116 (colon), A375 (melanoma), H1299 (lung), MIAPaCa-2 (pancreas), HL60 (leukemia), MCF7 (breast), MDA-MB-231 (breast) (T. Mosmann, J. Immunol. Meth., 1983, 65, 55-63). The cells were cultured at 37° C. in RMPI1640 medium supplemented with 10% fetal bovine serum, 50 IU/mL penicillin, and 50 μg/mL streptomycin in a 5% CO2 incubator. All cells were sub-cultured 3 times/week by trypsinisation. Viable cells were seeded and allowed to adhere for 12 hours before a test drug was added in 96-well plates at an initial density of 1.0×10^5 cells/mL. Tumor cell lines were separately exposed to various concentrations of the tested compounds followed by incubation at a temperature of 37° C. during 96 hours inside a medium of fresh RMPI 1640. Cells were subsequently incubated at 37° C. using MTT at 0.5 mg/mL during 4 hours. After removal of supernatant, formazan crystals were dissolved in isopropanol and the optical density was measured at 570 nm. CX-4945 was used as a positive control.

HCT116 (colon) = assay: In vitro cytotoxic activity (MTT) assay, HCT116; type: cell-based; details: Homo sapiens, HCT-116; HCT116 (colon) cells, exposed for 96 hours; read-out: Cytotoxicity activity IC50 (50% inhibition of cell proliferation)
Method: as §1

A375 (melanoma) = assay: In vitro cytotoxic activity (MTT) assay, A375; type: cell-based; details: Homo sapiens, A-375; A375 (melanoma) cells, exposed for 96 hours; read-out: Cytotoxicity activity IC50 (50% inhibition of cell proliferation)
Method: as §1

H1299 (lung) = assay: In vitro cytotoxic activity (MTT) assay, H1299; type: cell-based; details: Homo sapiens, NCI-H1299; H1299 (lung) cells, exposed for 96 hours; read-out: Cytotoxicity activity IC50 (50% inhibition of cell proliferation)
Method: as §1

MIAPaCa-2 (pancreas) = assay: In vitro cytotoxic activity (MTT) assay, MIAPaCa-2; type: cell-based; details: Homo sapiens, MIA PaCa-2; MIAPaCa-2 (pancreas) cells, exposed for 96 hours; read-out: Cytotoxicity activity IC50 (50% inhibition of cell proliferation)
Method: as §1

HL60 (leukemia) = assay: In vitro cytotoxic activity (MTT) assay, HL60; type: cell-based; details: Homo sapiens, HL-60; HL60 (leukemia) cells, exposed for 96 hours; read-out: Cytotoxicity activity IC50 (50% inhibition of cell proliferation)
Method: as §1

MCF7 (breast) = assay: In vitro cytotoxic activity (MTT) assay, MCF7; type: cell-based; details: Homo sapiens; MCF7 (breast) cells, exposed for 96 hours; read-out: Cytotoxicity activity IC50 (50% inhibition of cell proliferation)
Method: as §1

MDA-MB-231 (breast) = assay: In vitro cytotoxic activity (MTT) assay, MDA-MB-231; type: cell-based; details: Homo sapiens; MDA-MB-231 (breast) cells, exposed for 96 hours; read-out: Cytotoxicity activity IC50 (50% inhibition of cell proliferation)
Method: as §1

[1] = biological target: T1, recombinant human CK2 (RRBB-holoenzyme) (Homo sapiens, UniProt P68400); assay: CK2 Kinase Assay (33P-ATP, filter plate); type: biochemical; details: final ATP concentration 15 μM, 10 min at 30° C., eight concentrations; read-out: protein kinase CK2 inhibition IC50
T1 construct: purchased Millipore
T1 sequence (P68400 whole entry): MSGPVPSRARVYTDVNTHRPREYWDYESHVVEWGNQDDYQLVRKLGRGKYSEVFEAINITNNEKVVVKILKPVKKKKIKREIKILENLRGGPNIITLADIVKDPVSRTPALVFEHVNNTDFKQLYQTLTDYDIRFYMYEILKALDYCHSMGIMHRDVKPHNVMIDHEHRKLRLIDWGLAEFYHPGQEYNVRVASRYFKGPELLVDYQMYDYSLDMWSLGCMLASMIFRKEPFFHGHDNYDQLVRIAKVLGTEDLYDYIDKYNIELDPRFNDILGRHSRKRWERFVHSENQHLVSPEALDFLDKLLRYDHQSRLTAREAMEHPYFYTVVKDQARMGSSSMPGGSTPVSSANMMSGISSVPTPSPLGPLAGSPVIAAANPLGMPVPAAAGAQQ
T1 sequence (P67870 whole entry partner): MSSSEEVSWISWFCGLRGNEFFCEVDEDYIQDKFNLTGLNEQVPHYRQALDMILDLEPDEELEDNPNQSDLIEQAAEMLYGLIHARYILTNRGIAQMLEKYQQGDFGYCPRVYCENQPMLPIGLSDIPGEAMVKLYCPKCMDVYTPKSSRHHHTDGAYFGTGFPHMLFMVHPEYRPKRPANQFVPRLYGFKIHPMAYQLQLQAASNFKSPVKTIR
Method: CK2 Kinase Assay was conducted using the protocol as described in Pierre F. et al; J. Med. Chem. 2011, 54, 635-654. The tested compounds in aqueous solution were added at a volume of 10 μL to a reaction mixture comprising 10 μL of assay dilution buffer (ADB; 20 mM MOPS, pH 7.2, 25 mM β-glycerol phosphate, 5 mM EGTA, 1 mM sodium orthovanadate, and 1 mM dithiothreitol), 10 μL of substrate peptide (RRRDDDSDDD, dissolved in ADB at a concentration of 1 mM), 10 μL of recombinant human CK2 (RRBB-holoenzyme, 25 ng dissolved in ADB; Millipore). Reactions were initiated by the addition of 10 μL of ATP solution (90% 75 mMMgCl2, 75 μM ATP (final ATP concentration: 15 μM) dissolved in ADB; 10% [Y-33P] ATP (stock 1 mCi/100 μL; 3000 Ci/mmol (Perkin-Elmer) and maintained for 10 min at 30° C. The reactions were quenched with 100 μL of 0.75% phosphoric acid and then transferred to and filtered through a phosphor cellulose filter plate (Millipore). After washing each well five times with 0.75% phosphoric acid, the plate was dried under vacuum for 5 min and, following the addition of 15 μL of scintillation fluid to each well, the residual radioactivity was measured using a Wallac luminescence counter. The IC50 values were derived from eight concentrations of test inhibitors.

pIC50 [1]: 7.02
Compound: O=C(O)c1cnn2c1nc(Nc1cccc(Cl)c1)c1ccncc12 [Compound 1, 5-((3-chlorophenyl)amino)pyrazolo[1,5-a]pyrido[4,3-e]pyrimidine-3-carboxylic acid]
pIC50 (PC3 (prostate)): 5.68
pIC50 (HCT116 (colon)): 5.72
pIC50 (A375 (melanoma)): 5.37
pIC50 (H1299 (lung)): 5.80
pIC50 (MIAPaCa-2 (pancreas)): 5.96
pIC50 (HL60 (leukemia)): 5.41
pIC50 (MCF7 (breast)): 5.28
pIC50 (MDA-MB-231 (breast)): 5.36
